Data as given in US10449221B2, “Differentiation of stem cells into thyroid tissue” (TRUSTEES OF BOSTON UNIVERSITY, priority 2015, dated 2019).
Entries after “also recorded” stand apart in the source; their conditions may differ.

Key:
[1] = system: Nkx2-1GFP+; Pax8tdTomato trace+ iPSC-derived cells; assay: Lineage specification of bifluorescent reporter iPSC line by day 14; type: cell-based, mouse; settings: factor withdrawn or removed from the Nkx2-1 induction media, data not shown
[2] = system: ESC-derived definitive endoderm; assay: Nkx2-1+ endoderm induction from ESC-derived endoderm, specification media day 6-14, flow cytometry on day 14; type: cell-based, mouse; settings: sequential withdrawal of each individual factor from the WFKBE+2 cocktail
Method: Definitive endoderm induction was performed in complete serum-free differentiation medium (cSFDM) consisting of 75% IMDM (Invitrogen 12440) and 25% Ham's Modified F12 medium (Cellgro 10-080-CV) supplemented with N2 and B27+RA (Invitrogen 17502-048 and 17504-44), 0.05% BSA (Invitrogen 15260-037), […] L-glutamine (Invitrogen 25030-081), 0.05 mg/ml ascorbic acid (Sigma A4544) and 4.5×10^-4M MTG (Sigma M6145) as previously described (Gouon-Evans et al., 2006, Longmire et al., 2012). Undifferentiated ESCs were trypsinized to form a single cell suspension and plated onto Petri dishes (500,000 cells/10 cm dish) resulting in the formation of embryoid bodies (EBs) over 60 hours. EBs were dissociated by trypsinization (0.05%, 1 min, 37° C.) and plated as single cells into cSFDM supplemented with 50 ng/ml Activin A (R&D systems 338-AC) for an additional 60 hours. For Anteriorization of endoderm, on day 5 (120 total hours of differentiation) EBs were plated onto p100 Petri dishes in Nog/SB media: cSFDM supplemented with 100 ng/ml mNoggin (R&D 1967-NG) and 10 μM SB431542 (Sigma S4317) as previously described (Longmire et al., 2012). For Nkx2-1+ endoderm induction, EBs were plated on gelatin coated 6 well plates at the equivalent density of 200,000 cells/well in Specification media: cSFDM supplemented as stated in the text with 100 ng/ml mWnt3a (R&D 1324-WN), 10 ng/ml hFGF10 (R&D 345-FG), 10 ng/ml mKGF (R&D 5028-KG), 10 ng/ml mBMP4 (R&D 5020-BP), 20 ng/ml hEGF (R&D 236-EG), 250 ng/ml mFGF2 (R&D 3139-FB) and 100 ng/ml Heparin Sodium Salt (Sigma […]2-1mCherry+ cells, or the populations otherwise indicated in the text were sorted using MoFlo or […] II SORP high speed cell sorters and replated onto gelatin-coated 24 well plates on day 12-14 at a density of 5×10^4 cells/well. Where indicated in the text, small molecule inhibitors were dissolved in DMSO according to manufacturer's instructions and added to the culture media from day 6 to 14 at the following working concentrations: Dorsomorphin 4 μM (Sigma P5499), PD98059 20 μM, SB203580 10 μM (both from Cell Signaling Technology, PHZ1164 and 5633), and LY294002 […] (Promega V1201).

[3] = system: ESC-derived Nkx2-1+ cells; assay: Thyroid marker mRNA by real time RT-PCR on Day 26 after outgrowth of day 14 sorted Nkx2-1+ cells; type: cell-based, mouse; settings: growth factors in specification media day 6 to 14; sorted day 14, replated until day 26
Method: For Anteriorization of endoderm, on day 5 (120 total hours of differentiation) EBs were plated onto p100 Petri dishes in Nog/SB media: cSFDM supplemented with 100 ng/ml mNoggin (R&D 1967-NG) and 10 μM SB431542 (Sigma S4317) as previously described (Longmire et al., 2012). For Nkx2-1+ endoderm induction, EBs were plated on gelatin coated 6 well plates at the equivalent density of 200,000 cells/well in Specification media: cSFDM supplemented as stated in the text with 100 ng/ml mWnt3a (R&D 1324-WN), 10 ng/ml hFGF10 (R&D 345-FG), 10 ng/ml mKGF (R&D 5028-KG), 10 ng/ml mBMP4 (R&D 5020-BP), 20 ng/ml hEGF (R&D 236-EG), 250 ng/ml mFGF2 (R&D 3139-FB) and 100 ng/ml Heparin Sodium Salt (Sigma […]2-1mCherry+ cells, or the populations otherwise indicated in the text were sorted using MoFlo or […] II SORP high speed cell sorters and replated onto gelatin-coated 24 well plates on day 12-14 at a density of 5×10^4 cells/well. […] Relative gene expression, normalized to 18S control, was calculated as fold change in 18S-normalized gene expression, over baseline, using the 2^(-ΔΔCT) method. […]

hypothyroid mice = assay: TSH response test; type: in vivo, mouse; settings: T3 4 μg per 100 g body weight i.p. daily for 4 days; all groups; data not shown
Method: To suppress endogenous production of T4 and TSH, T3 (4 μg per 100 g body weight (BW); Sigma T6397) was given daily by intraperitoneal injection for 4 days. 15 hours after the last injection, blood was taken from the submandibular vein to measure T4 and TSH after which a single injection of highly purified bTSH (Los Angeles Biomedical Research Institute, National Hormone and Peptide Program. Torrance, Calif.) at 30 mU per 100 g BW was given. 3 hours later blood samples were taken to assess the increase of total T4. Five mice per group (positive control group, Sham, and D30 ESCs recipients) were included in the experiment.

pSmad1/5 = assay: Western blot of pSmad1/5 content in mouse foregut explants; type: cell-based; settings: 24 hours of treatment, DMH-1 1.5 μM vs vehicle
Method: (§1) Whole foreguts were dissected from E8.5 embryos (6-8 somite pairs) in Hank's balanced salt solution (HBSS) then explanted onto 8 μm pore size Whatman Nucleopore Track-Etch Membranes (Millipore). Explants were cultured for 2-3 days in a base medium (BGJb medium (Gibco)+10% fetal bovine serum (FBS, Sigma) and 0.2 mg/ml ascorbic acid) containing either the BMPR inhibitor DMH-1 (1.5 μM, Tocris) or DMSO as a vehicle control. Whole mount immunostaining was performed using a modification of the method of Ahnfelt-Ronne et al. (Ahnfelt-Ronne et al., 2007). The primary antibodies used were: guinea pig anti-Nkx2-1 (Seven Hill Bioreagents; 1:500), rabbit anti-Pax8 (Protein Tech; 1:500) and rat anti-Ecad (R&D; 1:2000). After staining, samples were cleared with Murray's clear (2:1 benzyl benzoate: benzyl alcohol) and imaged using a Nikon A1Rsi inverted laser confocal microscope. Imaris software was used to analyze the images. DMH-1 treated and control explants were harvested and lysed in Laemmli buffer after 24 hours of treatment. Lysates were electrophoresed on a 10-20% Tris-glycine gel under reducing conditions, Western blotted, and probed with antibodies (Cell Signaling) to detect total Smad1/5 and pSmad 1/5 content; β-actin content served as a loading control.

mouse foregut explants = assay: Mouse E8.5 whole foregut explant culture, whole mount immunostaining for Nkx2-1 and Pax8; type: cell-based; settings: 6-8 somite foreguts, 2-3 days, DMH-1 1.5 μM vs DMSO
Method: as §1

Xenopus embryos = assay: Xenopus whole embryo culture in pathway antagonists, in-situ hybridization for thyroid markers; type: in vivo; settings: inhibitor from stage NF13 until NF20; DMH-1 40 μM, SU5402 10 μM
Method: Xenopus embryos were generated by in vitro fertilization and assayed by in situ hybridization or confocal immunostaining as previously described (Rankin et al., 2015). Small molecule inhibitors were dissolved in DMSO according to manufacturer's instructions and added to the embryo culture saline at the following working concentrations: 10 μM SU5402 (Tocris Bioscience), 40 μM DMH-1 (Sigma), 50 μM XAV939 (Sigma) and 10 μM BMS493 (Tocris Bioscience). Foregut explants were dissected from stage NF15 and treated with Dispase (BD Pharmingen) for 15 minutes and then the mesoderm was manually removed. Foregut endoderm was then cultured in 0.5× Modified Barth's Saline with 0.1% BSA with or without 500 ng/ml rhFGF2 and 50 ng/ml rhBMP4 (R&D systems).

**Q.** What does the source list for “Wingless-Type MMTV Integration Site Family protein, member 3A [Wnt3a]”?
**A.** efficiency of lineage specification, percent yield of GFP+/tdTomato+ cells [1]: no significant impact; Nkx2-1+ endodermal induction efficiency [2]: dispensable for Nkx2-1 induction efficiency; thyroid competence, thyroid marker mRNA on D26 [3]: does not alter thyroid lineage specification

**Q.** Which “endogenous TSH and T4 after exogenous T3” value (hypothyroid mice) does the source give for `N[C@@H](Cc1cc(I)c(Oc2ccc(O)c(I)c2)c(I)c1)C(=O)O` [T3, Triiodothyronine] here?
**A.** TSH suppression and abrogated T4 secretion

**Q.** `CC(C)Oc1ccc(-c2cnc3c(-c4ccnc5ccccc45)cnn3c2)cc1` [DMH-1] was tested. Which “phosphorylation of SMAD1/5/8, pSmad1/5 content” value (pSmad1/5) did it give?
**A.** substantial reduction in pSmad1/5 content; also recorded: marked reduction in phosphorylation of SMAD1/5/8

**Q.** What about the “induction of Nkx2-1 and Pax8, thyroid bud formation” value (mouse foregut explants) of the same compound?
**A.** no thyroid bud was apparent; also recorded: blocked induction of both Nkx2-1 and Pax8

**Q.** What about the “induction of thyroid markers foxe1, nkx2-1, pax2 and hhex” value (Xenopus embryos) of the same compound?
**A.** abrogated induction of all four thyroid markers in the vast majority of embryos
